Assay [1] concerns the target T1, His tagged PTPN2 (TC45) protein (Homo sapiens, UniProt P17706).
T1 construct: His; made in house
T1 sequence (P17706 1-387 isoform P17706-2): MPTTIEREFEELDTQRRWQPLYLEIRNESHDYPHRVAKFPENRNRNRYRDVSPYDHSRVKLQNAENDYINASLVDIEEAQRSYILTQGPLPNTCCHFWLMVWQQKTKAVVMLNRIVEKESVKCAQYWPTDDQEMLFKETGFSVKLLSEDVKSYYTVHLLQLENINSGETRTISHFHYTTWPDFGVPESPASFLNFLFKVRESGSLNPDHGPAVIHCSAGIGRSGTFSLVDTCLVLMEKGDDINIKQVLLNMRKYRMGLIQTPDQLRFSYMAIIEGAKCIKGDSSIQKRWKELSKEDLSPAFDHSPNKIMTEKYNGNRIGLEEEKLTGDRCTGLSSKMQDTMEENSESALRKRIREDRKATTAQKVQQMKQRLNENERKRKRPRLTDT
The assay can be described thus: Mobility Shift Assay (MSA) for PTPN2 inhibitors. The following applies: for Thiochromane x-fold>potency biochemical: PTPN2 MSA IC50 of chromane comparator over thiochromane. The format is biochemical. Put shortly: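 Enzyme (0.5 nM) preincubated 10 min at RT with compound (12-point, 1:3 dilution) in 50 mM HEPES pH 7.5, 10 mM EDTA, 2 mM DTT; OG488-labelled phospho-insulin-receptor peptide substrate (2 μM) then added for 10 min. After quench, dephosphorylation measured by microfluidic mobility shift (ex 488/em 530 nm); IC50 from % inhibition.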

The target in assay [2] is T2, His tagged full-length PTPN1 protein (Homo sapiens, UniProt P18031).
T2 construct: His; made in house
T2 sequence (P18031 1-435): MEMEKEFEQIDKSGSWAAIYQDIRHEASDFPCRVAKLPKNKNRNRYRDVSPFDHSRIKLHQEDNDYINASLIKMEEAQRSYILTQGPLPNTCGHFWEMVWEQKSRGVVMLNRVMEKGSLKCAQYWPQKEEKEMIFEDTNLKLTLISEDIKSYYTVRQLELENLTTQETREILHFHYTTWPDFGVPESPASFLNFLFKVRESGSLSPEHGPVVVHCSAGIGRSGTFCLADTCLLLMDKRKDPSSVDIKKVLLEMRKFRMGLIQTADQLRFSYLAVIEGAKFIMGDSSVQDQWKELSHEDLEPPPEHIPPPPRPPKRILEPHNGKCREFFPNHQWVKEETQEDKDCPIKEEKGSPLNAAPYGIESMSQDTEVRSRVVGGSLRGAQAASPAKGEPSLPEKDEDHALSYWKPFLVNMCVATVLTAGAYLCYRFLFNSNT
Briefly: Mobility Shift Assay (MSA) for PTPN1 inhibitors. The format is biochemical. To be noted: enzyme 0.5 nM, substrate 2 μM, 10 minutes preincubation at room temperature. The gist of the method:
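Full-length His-tagged human PTPN1 (0.5 nM) was pre-incubated 10 min at RT with compound (12-point, 1:3) in HEPES pH 7.5 buffer with EGTA, EDTA, Tween-20 and DTT. Fluorescent phospho-insulin-receptor peptide (2 μM) was then added for 10 min. After quench, dephosphorylation was measured by microfluidic mobility shift, and IC50 was taken from % inhibition.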

For assay [3], the system named is IFNγ-induced STAT1 phosphorylation (pSTAT1) in B16F10 cells. The assay can be described thus: B16F10 Phospho-STAT1 HTRF proximal pharmacodynamic (PD) assay. The assay is classed as cell-based, murine. To be noted: for EC50: B16-F10; for Thiochromane x-fold>potency cellular: pSTAT1 EC50 of chromane comparator over thiochromane. Put shortly: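 Murine B16F10 melanoma cells dosed 3 h at 37 °C (10-point, 3-fold dilution from 50 μM top dose), then stimulated 10 min with recombinant mouse IFNγ (100 nM final) and stopped with 3.3 μM staurosporine for 1 h. pSTAT1 in lysates detected by HTRF (Eu cryptate/d2 antibodies, 3 h RT, 665 nm emission); EC50 from dose-response curves.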
(Time-resolved FRET reads energy transfer from a long-lived donor to a nearby acceptor.)

Where [4] appears, read: enzyme 0.5 nM, substrate 2 μM, 10 minutes preincubation at room temperature.
The mark [5] stands for this setting: Table 2, 3 hours compound, then mouse IFNγ 100 nM 10 minutes, top dose 50 μM, read-out: B16F10 IFNγ Induced pSTAT1 EC50.
Where [6] appears, read: Mus musculus, Table 3, B16F10 cells, IFNγ-induced, thiochromanes (X = S) and chromane comparators (X = O), read-out: pSTAT1 EC50.

Where two headings read alike, the source gives them in different places.

The record followed here is patent publication US20250042894A1, “PROTEIN TYROSINE PHOSPHATASE INHIBITORS AND METHODS OF USE THEREOF” (Calico Life Sciences LLC, priority 2021, published 2025).

In the case of `CCC(C)(C)CCN[C@@H]1CSc2cc(O)c(N3CC(=O)NS3(=O)=O)c(F)c2C1` [Compound 124, 5-{(3S)-3-[(3,3-dimethylpentyl)amino]-5-fluoro-7-hydroxy-3,4-dihydro-2H-1-benzothiopyran-6-yl}-1λ^6,2,5-thiadiazolidine-1,1,3-trione], the half-inhibitory concentration (IC50) – broadly, the concentration that inhibits the measured activity by half – in assay [1] (setting [4]) is below 10 nM; in assay [2], 10 to 100 nM. Further, the half-maximal effective concentration (EC50) (usually the concentration at which the effect is half-maximal) in assay [3] (setting [5]) turned out to be 6940 nM.
For `O=C1CN(c2c(O)cc3c(c2F)C[C@H](NCC2(F)CC2)CS3)S(=O)(=O)N1` [Compound 125, 5-[(3S)-5-fluoro-3-{[(1-fluorocyclopropyl)methyl]amino}-7-hydroxy-3,4-dihydro-2H-1-benzothiopyran-6-yl]-1λ^6,2,5-thiadiazolidine-1,1,3-trione], in that order: 10 to 100 nM, 10 to 100 nM and above 50000 nM.
The matching figures for `O=C1CN(c2c(O)cc3c(c2F)C[C@H](NCC2CC2(F)F)CS3)S(=O)(=O)N1` (stereo partly drawn) [Compound 126, 5-[(3S)-3-{[(2,2-difluorocyclopropyl)methyl]amino}-5-fluoro-7-hydroxy-3,4-dihydro-2H-1-benzothiopyran-6-yl]-1λ^6,2,5-thiadiazolidine-1,1,3-trione]: 10 to 100 nM, 10 to 100 nM and 25500 nM.
For `CC1(CN[C@@H]2CSc3cc(O)c(N4CC(=O)NS4(=O)=O)c(F)c3C2)COC1` [Compound 127, 5-[(3S)-5-fluoro-7-hydroxy-3-{[(3-methyloxetan-3-yl)methyl]amino}-3,4-dihydro-2H-1-benzothiopyran-6-yl]-1λ^6,2,5-thiadiazolidine-1,1,3-trione], in that order: 10 to 100 nM, 10 to 100 nM and 8970 nM.
`O=C1CN(c2c(O)cc3c(c2F)C[C@H](NCC2(CF)CC2)CS3)S(=O)(=O)N1` [Compound 128, 5-[(3S)-5-fluoro-3-({[1-(fluoromethyl)cyclopropyl]methyl}amino)-7-hydroxy-3,4-dihydro-2H-1-benzothiopyran-6-yl]-1λ^6,2,5-thiadiazolidine-1,1,3-trione]: the “Thiochromane x-fold>potency biochemical” value in assay [1] (Table 3) was found to be 1.2. Also, the IC50 in assay [1] (setting [4]) and in assay [2] was 10 to 100 nM each time. For the same molecule, the EC50 in assay [3] (setting [5]) and in assay [3] (setting [6]) was 25700 nM throughout. The “Thiochromane x-fold>potency cellular” value in assay [3] (Table 3) is recorded as above 1.9.
Regarding `CC(F)(F)CCCN[C@@H]1CSc2cc(O)c(N3CC(=O)NS3(=O)=O)c(F)c2C1` [Compound 129, 5-{(3S)-3-[(4,4-difluoropentyl)amino]-5-fluoro-7-hydroxy-3,4-dihydro-2H-1-benzothiopyran-6-yl}-1λ^6,2,5-thiadiazolidine-1,1,3-trione], the IC50 in assay [1] (setting [4]) and in assay [2] was below 10 nM in each case. Further, in assay [3] (setting [5]), the EC50 was 589 nM.
As for `COCCCN[C@@H]1CSc2cc(O)c(N3CC(=O)NS3(=O)=O)c(F)c2C1` [Compound 130, 5-{(3S)-5-fluoro-7-hydroxy-3-[(3-methoxypropyl)amino]-3,4-dihydro-2H-1-benzothiopyran-6-yl}-1λ^6,2,5-thiadiazolidine-1,1,3-trione], the IC50 in assay [1] (setting [4]) and in assay [2] was 10 to 100 nM in each case. In addition, the 50% effective concentration (EC50) in assay [3] (setting [5]) came out at 4110 nM.
On to `O=C1CN(c2c(O)cc3c(c2F)C[C@H](NCCCn2cccn2)CS3)S(=O)(=O)N1` [Compound 131, 5-[(3S)-5-fluoro-7-hydroxy-3-{[3-(1H-pyrazol-1-yl)propyl]amino}-3,4-dihydro-2H-1-benzothiopyran-6-yl]-1λ^6,2,5-thiadiazolidine-1,1,3-trione], for which the IC50 in assay [1] (setting [4]) was 10 to 100 nM; in assay [2] it was above 100 nM. For the same molecule, in assay [3] (setting [5]), the EC50 was above 50000 nM.
For `CC1(CCN[C@@H]2CSc3cc(O)c(N4CC(=O)NS4(=O)=O)c(F)c3C2)CC1` [Compound 132, 5-[(3S)-5-fluoro-7-hydroxy-3-{[2-(1-methylcyclopropyl)ethyl]amino}-3,4-dihydro-2H-1-benzothiopyran-6-yl]-1λ^6,2,5-thiadiazolidine-1,1,3-trione], in that order: below 10 nM, 10 to 100 nM and 1580 nM.
For `CC(CN[C@@H]1CSc2cc(O)c(N3CC(=O)NS3(=O)=O)c(F)c2C1)C1CC1` (stereo partly drawn) [Compound 133, 5-{(3S)-3-[(2-cyclopropylpropyl)amino]-5-fluoro-7-hydroxy-3,4-dihydro-2H-1-benzothiopyran-6-yl}-1λ^6,2,5-thiadiazolidine-1,1,3-trione], in that order: below 10 nM, below 10 nM and 762 nM.
In the case of `CC(CCN[C@@H]1CSc2cc(O)c(N3CC(=O)NS3(=O)=O)c(F)c2C1)c1ccccc1` (stereo partly drawn) [Compound 134, 5-{(3S)-5-fluoro-7-hydroxy-3-[(3-phenylbutyl)amino]-3,4-dihydro-2H-1-benzothiopyran-6-yl}-1λ^6,2,5-thiadiazolidine-1,1,3-trione], the half-inhibitory concentration (IC50) in assay [1] (setting [4]) is below 10 nM; in assay [2], 10 to 100 nM. For the same molecule, in assay [3] (setting [5]), the EC50 was above 50000 nM.
For `O=C1CN(c2c(O)cc3c(c2F)C[C@H](NCC2CC(c4ccccc4)C2)CS3)S(=O)(=O)N1` (stereo partly drawn) [Compound 135, 5-[(3S)-5-fluoro-7-hydroxy-3-{[(3-phenylcyclobutyl)methyl]amino}-3,4-dihydro-2H-1-benzothiopyran-6-yl]-1λ^6,2,5-thiadiazolidine-1,1,3-trione], in assay [1] (Table 3), the “Thiochromane x-fold>potency biochemical” value is listed as 1.9. The figures for the IC50 in assay [1] (setting [4]) and in assay [2] were below 10 nM and 10 to 100 nM, respectively. For the same molecule, the EC50 in assay [3] (setting [5]) and in assay [3] (setting [6]) was 688 nM each time. For the same molecule, the “Thiochromane x-fold>potency cellular” value in assay [3] (Table 3) was above 72.7.
On to `O=C1CN(c2c(O)cc3c(c2F)C[C@H](NCCCc2ccccc2)CS3)S(=O)(=O)N1` [Compound 136, 5-{(3S)-5-fluoro-7-hydroxy-3-[(3-phenylpropyl)amino]-3,4-dihydro-2H-1-benzothiopyran-6-yl}-1λ^6,2,5-thiadiazolidine-1,1,3-trione], for which the “Thiochromane x-fold>potency biochemical” value in assay [1] (Table 3) came to 0.8. The IC50 in assay [1] (setting [4]) and in assay [2] was 10 to 100 nM in each case. Besides, the 50% effective concentration (EC50) in assay [3] (setting [5]) and in assay [3] (setting [6]) was 27600 nM in each case. Further, in assay [3] (Table 3), the “Thiochromane x-fold>potency cellular” value was above 1.8.
Regarding `O=C1CN(c2c(O)cc3c(c2F)C[C@H](NCCCOCC(F)F)CS3)S(=O)(=O)N1` [Compound 137, 5-[(3S)-3-{[3-(2,2-difluoroethoxy)propyl]amino}-5-fluoro-7-hydroxy-3,4-dihydro-2H-1-benzothiopyran-6-yl]-1λ^6,2,5-thiadiazolidine-1,1,3-trione], the “Thiochromane x-fold>potency biochemical” value in assay [1] (Table 3) was found to be 1.1. The IC50 was 21 nM in assay [1] (Table 3, thiochromanes (X = S) and chromane comparators (X = O)); 10 to 100 nM in assay [1] (setting [4]); 10 to 100 nM in assay [2]. The 50% effective concentration (EC50) in assay [3] (setting [5]) and in assay [3] (setting [6]) was above 50000 nM in each case. The “Thiochromane x-fold>potency cellular” value in assay [3] (Table 3) is around 1.0.
As for `O=C1CN(c2c(O)cc3c(c2F)C[C@H](NCC2CCC(C(F)(F)F)CC2)CS3)S(=O)(=O)N1` (stereo partly drawn) [Compound 139, 5-[(3S)-5-fluoro-7-hydroxy-3-({[4-(trifluoromethyl)cyclohexyl]methyl}amino)-3,4-dihydro-2H-1-benzothiopyran-6-yl]-1λ^6,2,5-thiadiazolidine-1,1,3-trione], in assay [1] (Table 3), the “Thiochromane x-fold>potency biochemical” value is reported as 5.4. The IC50 in assay [1] (setting [4]) is below 10 nM; in assay [2], 10 to 100 nM. The EC50 in assay [3] (setting [5]) and in assay [3] (setting [6]) was above 50000 nM each time. For the same molecule, the “Thiochromane x-fold>potency cellular” value in assay [3] (Table 3) is around 1.0.
